# Reference: PMC10855113, “Opioid Analgesic as a Positive Allosteric Modulator of Acid-Sensing Ion Channels” (International Journal of Molecular Sciences, 2024)
# Read-outs that look alike come from different tables or passages of the source. Where a SMILES comes first, the peptide text is derived from it. Bridges are numbered along the chain shown (N, C = ends). Where no end group is shown, it is not given here. [ ]: non-standard residue; d: D form.
# Tests used:
# [1] = system: ASIC3; conditions: mice; activation of ASIC3; ref [31],[32]; cited from earlier work
# Source text: In this study, we have investigated the pharmacological effect of tafalgin (Taf) on ASICs. […] These channels, preferably having a neuronal localization, play an important role in the functioning of CNS and PNS, and are involved in the regulation of synaptic plasticity and learning, the fear perception, and responses to ischemic stroke, multiple sclerosis, and nociception. Positive modulators of ASICs are shown to have ...
# [2] = system: ASIC3; design: method as in PMID 37918499; conditions: suppressing morphine-induced microglial activation through ASIC3 inhibition; ref [40]; cited from earlier work
# [3] = biological target: T1, rat ASIC3 (Rattus norvegicus, UniProt O35240); experiment: cell-based
# T1 construct: expressed in transfected cells; host or cells: Xenopus laevis oocytes injected with cRNA from a PCi plasmid
# T1 sequence (O35240 1-533): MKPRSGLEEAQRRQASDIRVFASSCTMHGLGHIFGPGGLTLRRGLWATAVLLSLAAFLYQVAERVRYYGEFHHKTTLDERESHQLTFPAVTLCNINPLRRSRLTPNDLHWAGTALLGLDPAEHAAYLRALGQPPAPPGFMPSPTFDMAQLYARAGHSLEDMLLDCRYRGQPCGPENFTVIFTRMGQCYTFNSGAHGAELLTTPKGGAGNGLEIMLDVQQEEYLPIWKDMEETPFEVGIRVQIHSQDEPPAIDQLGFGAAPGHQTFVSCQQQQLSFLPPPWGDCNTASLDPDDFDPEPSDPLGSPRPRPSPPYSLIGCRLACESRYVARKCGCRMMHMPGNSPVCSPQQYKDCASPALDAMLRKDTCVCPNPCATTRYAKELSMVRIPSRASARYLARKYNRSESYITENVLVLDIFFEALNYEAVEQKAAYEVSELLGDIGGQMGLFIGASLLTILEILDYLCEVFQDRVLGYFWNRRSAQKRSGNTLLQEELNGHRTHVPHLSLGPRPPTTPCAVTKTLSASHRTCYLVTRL
# [4] = system: ASIC channels; design: method as in PMID 34721074; conditions: dual-action ligand; ref [39]; cited from earlier work
# [5] = system: ASIC channels; conditions: cited from earlier work
# [6] = biological target: T2, human ASIC3 (Homo sapiens, UniProt Q9UHC3); experiment: two-electrode voltage clamp, human ASIC3 in X. laevis oocytes; type: cell-based
# T2 construct: expressed in transfected cells; host or cells: Xenopus laevis oocytes injected with cRNA from a pVAX1 plasmid
# T2 sequence (Q9UHC3 1-531): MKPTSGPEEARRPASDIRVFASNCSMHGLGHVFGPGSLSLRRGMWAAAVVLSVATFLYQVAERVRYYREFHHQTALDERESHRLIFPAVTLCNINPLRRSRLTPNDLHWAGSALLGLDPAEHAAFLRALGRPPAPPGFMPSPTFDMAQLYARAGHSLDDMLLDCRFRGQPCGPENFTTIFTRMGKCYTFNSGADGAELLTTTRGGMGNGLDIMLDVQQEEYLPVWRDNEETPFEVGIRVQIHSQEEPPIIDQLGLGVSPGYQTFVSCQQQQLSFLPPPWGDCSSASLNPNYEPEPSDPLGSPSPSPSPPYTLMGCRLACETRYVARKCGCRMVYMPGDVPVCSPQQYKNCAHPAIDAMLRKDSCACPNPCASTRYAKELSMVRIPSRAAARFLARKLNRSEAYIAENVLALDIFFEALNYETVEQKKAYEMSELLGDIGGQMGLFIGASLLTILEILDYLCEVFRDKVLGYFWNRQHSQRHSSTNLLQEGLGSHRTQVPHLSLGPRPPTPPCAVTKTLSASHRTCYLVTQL
# [7] = biological target: T1, rat ASIC3; experiment: steady-state desensitization (SSD) of rat ASIC3; type: cell-based; conditions: pH 7, without Taf 1.4 ± 0.2%, control = pH drop 7.4 to 5.5, mean ± SEM, n = 5, read-out: integral current at conditioning pH 7.0, % of control
# [8] = biological target: T1, rat ASIC3; experiment: two-electrode voltage clamp, homomeric rat ASIC3 in X. laevis oocytes; type: cell-based
# [9] = biological target: T3, rat ASIC1a (Rattus norvegicus, UniProt P55926); experiment: two-electrode voltage clamp, homomeric rat ASIC1a in X. laevis oocytes; type: cell-based
# T3 construct: expressed in transfected cells; host or cells: Xenopus laevis oocytes injected with cRNA from a PCi plasmid
# T3 sequence (P55926 1-526): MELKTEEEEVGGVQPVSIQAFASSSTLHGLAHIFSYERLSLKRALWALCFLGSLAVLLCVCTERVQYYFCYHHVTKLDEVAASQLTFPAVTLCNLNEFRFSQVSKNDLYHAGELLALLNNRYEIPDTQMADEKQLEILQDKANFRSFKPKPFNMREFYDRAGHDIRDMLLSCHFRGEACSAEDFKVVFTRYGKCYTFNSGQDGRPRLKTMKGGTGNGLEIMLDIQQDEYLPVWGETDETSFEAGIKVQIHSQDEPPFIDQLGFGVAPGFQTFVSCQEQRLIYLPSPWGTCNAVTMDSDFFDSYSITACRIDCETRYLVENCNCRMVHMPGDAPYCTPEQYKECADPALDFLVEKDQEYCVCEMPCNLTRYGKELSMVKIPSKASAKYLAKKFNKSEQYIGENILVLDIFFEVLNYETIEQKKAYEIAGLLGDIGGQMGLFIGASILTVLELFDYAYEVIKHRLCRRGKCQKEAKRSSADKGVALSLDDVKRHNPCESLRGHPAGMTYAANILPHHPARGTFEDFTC
# [10] = biological target: T2, human ASIC3; experiment: steady-state desensitization of human ASIC3; type: cell-based; conditions: pH 7.4; 1 mM Taf; without Taf 11 ± 2%; control = pH drop 8.0 to 5.5; mean ± SEM, n = 5; p = 0.005; read-out: total integral current at conditioning pH 7.4, % of control
# [11] = biological target: T3, rat ASIC1a; experiment: steady-state desensitization of rat ASIC1a; type: cell-based; conditions: 1 mM Taf; without Taf 9.1 ± 2.5%; stimulus pH 5.5; mean ± SEM, n = 5; p = 0.9; read-out: integral current at conditioning pH 7.0, % of control
# [12] = solution for subcutaneous administration; ref manufacturer's website https://sotex.ru/production/catalog/detail.php?ELEMENT_ID=4952; cited from earlier work
# Source text: Due to the modulating effect of Taf towards ASIC3 in peripheral neurons, the proven analgesic effect of Taf on human may be accompanied by the development of side effects such as pain, mechanical hyperalgesia, inflammatory muscle and joint hyperalgesia, etc., where ASIC3 plays a crucial role. In addition, the significant modulating effect on ASIC1b/3 heteromers (Figure 7) may also have a negative impact on both peripheral acute and acid-induced chronic pain, where the ASIC1b-containing channels also play an important role. Indeed, the recommended dose for subcutaneous a ...
# [13] = system: ASIC1; conditions: cited from earlier work
# [14] = system: ASIC1a and ASIC1a-containing channels; conditions: cited from earlier work
compound,measurement,setting,value
Cc1nc(NC(=N)N)nc2ccccc12 [2-guanidine-4-methylquinazoline],nocifensive behavior,[1],induce nocifensive behavior in mice
"N=C(N)NC(=O)c1nc(Cl)c(N)nc1N [Ami, amiloride]",chronic morphine tolerance,[2],reduce chronic morphine tolerance
same,nH of inhibition in the presence of Taf,[3],1.06 ± 0.37
same,"residual integral current in the presence of Taf, % of control",[3],129 ± 9%
same,τdes,[3],732 ± 46 ms
same,IC50,[3]; half-maximal inhibitory concentration (IC50),66.9 ± 5.2 µM
same,IC50,[3]; half-maximal inhibitory concentration (IC50) in the presence of Taf,61.5 ± 21.2 µM
same,nH of inhibition,[3]; pH 7.4,0.87 ± 0.05
same,"residual integral current (lower asymptote), % of control",[3]; pH 7.4,36 ± 2%
same,action on ASIC channels,[4],capable of blocking ASIC channels and acting as an ASIC3-positive modulator
CN1CC[C@]23c4c5ccc(O)c4O[C@H]2[C@@H](O)C=C[C@H]3[C@H]1C5 [morphine],effect on ASIC channels,[5],negative modulators
DAMGO,effect on ASIC channels,[5],negative modulators
COc1ccc2c3c1O[C@H]1C(=O)CC[C@@]4(O)[C@@H](C2)N(C)CC[C@]314 [oxycodone],effect on ASIC channels,[5],positive modulating effect
"C[C@@H](NC(=O)[C@@H](N)Cc1ccc(O)cc1)C(=O)N[C@@H](Cc1ccccc1)C(=O)NCC(N)=O [Taf, Tyr-D-Ala-Phe-Gly-NH2] (H-Y[dA]FG-NH2)",EC50,[6],330 ± 80 µM
same,"Imax (upper asymptote), % of control","[6]; integral current, pH 8.0 to 5.5, mean ± SEM, 5 cells",373 ± 28%
same,recommended subcutaneous dose concentration (~9 mM) over EC50 for human ASIC3,[6]; ~9 mM solution vs EC50 on hASIC3,approximately 30 times
same,remaining activity at 300 µM,"[7]; 0.3 mM Taf, p = 0.009",3.6 ± 0.3%
same,remaining activity at 2000 µM,[7]; 2 mM Taf,50 ± 3%
same,EC50,[8],86 ± 24 µM
same,"increase in the integral current, protocol p.-a.","[8]; 0.3 mM Taf pre-applied 30 s in resting state, conditioning pH 7.4, stimulus pH 5.5, mean ± SEM, n = 5, p < 0.001",116 ± 5%
same,increase in the integral current,"[8]; 0.3 mM Taf, Vh −50 mV, pH 5.5 stimulus, isoform screening, mean ± SEM, n = 5, p < 0.001",115 ± 6%
same,"maximum current (Imax), to control","[8]; integral current vs control (pH drop from 7.4 to 5.5), mean ± SEM, n = 9",251 ± 15%
same,EC50,[9],1050 ± 270 µM
same,increase in the integral current,"[9]; 0.3 mM Taf, Vh −50 mV, pH 7.4 to 5.5, mean ± SEM, n = 5, p < 0.001",40 ± 5%
same,"integral current Imax, % of control","[9]; pH 7.4 to 5.5, mean ± SEM, n = 10, same as rASIC3 (p = 0.45)",332 ± 103%
same,remaining activity at 1000 µM,[10],22 ± 4%
same,remaining activity at 1000 µM,[11],9.4 ± 2.5%
same,side effects,[12],"peripheral neuropathy, itching, and pain at the injection site"
"GTACSCGNSKGIYWFYRPSCPTDRGYTGSCRYFLGTCCTPAD (disulfide 4-37, 6-30, 20-38) [APETx2]",τdes,"[3]; 100 nM APETx2, control 282 ± 22 ms, mean ± SEM, n = 5, p = 0.2",240 ± 22 ms
same,nH of inhibition in the presence of Taf,"[3]; APETx2 + 0.3 mM Taf, mean ± SEM, 5–6 cells",1.11 ± 0.05
same,nH of inhibition,"[3]; APETx2 alone, mean ± SEM, 5–6 cells",1.37 ± 0.05
same,inhibition of the channel,"[3]; APETx2 alone, pH 7.4 to 5.5",completely inhibited the channel
dynorphin,acidosis-induced neuronal death,[13],increase the acidosis-induced neuronal death
same,effect on proton-evoked currents,[14],restore the proton-evoked currents
